Measurements from patent publication EP4813463A2, “TYK2 INHIBITORS AND COMPOSITIONS AND METHODS THEREOF” (Lynk Pharmaceuticals Co. Ltd., priority 2023, dated 2024).
Converted amounts (≈) assume the structure as drawn. Read-outs that look alike come from different tables or passages of the source.

How the values were obtained:
JAK1-JH2 domain = biological target: T1, JAK1-JH2 domain (Homo sapiens, UniProt P23458); test: Binding activity test for JH2 domain of JAK1 (Tb-antibody/tracer FRET); conditions: JH2 domain enzyme; 60 min at 25°C, then 4°C overnight; read-out: JAK1 JH2 Binding IC50
T1 construct: JAK1-JH2 domain or TYK2-JH2 domain enzyme in assay buffer
T1 sequence (P23458 583-855 limits assumed): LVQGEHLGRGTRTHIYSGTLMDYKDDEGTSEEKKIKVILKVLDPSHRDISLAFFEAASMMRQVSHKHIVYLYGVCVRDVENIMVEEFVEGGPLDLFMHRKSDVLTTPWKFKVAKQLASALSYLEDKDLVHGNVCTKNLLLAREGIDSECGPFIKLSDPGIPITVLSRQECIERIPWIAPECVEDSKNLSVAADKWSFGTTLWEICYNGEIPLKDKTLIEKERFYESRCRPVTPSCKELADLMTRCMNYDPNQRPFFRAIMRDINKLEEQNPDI
In short: (§1)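 IC50 values (nM) come from TR-FRET readings taken after a 25°C incubation followed by overnight at 4°C. Each well held JH2 domain protein, Tb-antibody, tracer and test compound titrated in 11 threefold steps, with DMSO high and low controls.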

TYK2-JH2 domain = biological target: T2, TYK2-JH2 domain (Homo sapiens, UniProt P29597); test: Binding activity test for JH2 domain of TYK2 (Tb-antibody/tracer FRET); conditions: for IC50: JH2 domain enzyme, 60 min at 25°C, then 4°C overnight, read-out: TYK2 JH2 Binding IC50; for JAK1/TYK2 selectivity: ratio of JAK1 JH2 to TYK2 JH2 binding IC50
T2 construct: JAK1-JH2 domain or TYK2-JH2 domain enzyme in assay buffer
T2 sequence (P29597 589-875 limits assumed): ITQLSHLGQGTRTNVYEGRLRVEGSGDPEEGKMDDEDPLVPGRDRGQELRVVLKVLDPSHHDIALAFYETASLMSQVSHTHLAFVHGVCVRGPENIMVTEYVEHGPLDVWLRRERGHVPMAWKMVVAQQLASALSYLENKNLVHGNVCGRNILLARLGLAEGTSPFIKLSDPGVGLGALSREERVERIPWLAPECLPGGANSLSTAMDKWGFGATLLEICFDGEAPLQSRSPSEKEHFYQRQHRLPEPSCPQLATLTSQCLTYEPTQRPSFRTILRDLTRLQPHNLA
In short: as §1

[1] = tested on: Ba/F3-FL-TYK2-P760L cells; test: Anti-proliferative assay in engineered Ba/F3 cells (Cell-Titer Glo, 72 h); type: cell-based; conditions: 72 h compound treatment, concentration that causes 50% growth inhibition, read-out: Baf3-FL-T2P760L
In short: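 IC50 from luminescent ATP viability after 72 h compound exposure (37 °C, 5% CO2), % inhibition normalised to DMSO-treated cells minus medium blank. IL-3-free Ba/F3-FL-TYK2-P760L (Tel-JAK fusion) cells in 10% FBS RPMI-1640 received 9 three-fold doses, top 20 µM, 0.1% DMSO.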

Kinetic solubility = type: physicochemical; conditions: 100 mM pH 7.4 phosphate buffer, 1% DMSO, room temperature, read-out: Kinetics Solubility_PBS7.4
Procedure: Aliquots of 8 µL of reference and test compound stock solutions (10 mM/5 mM) are added into 792 µL of 100 mM pH 7.4 phosphate buffer. The final DMSO concentration is 1%. Sample tubes are shaken for 2 hours at 1000 rpm at room temperature. Samples are centrifuged at 12000 rpm for 10 min to precipitate un-dissolved particles. And transfer the supernatants to a new tube or plate. Add 5 µL of samples (no diluted, 10 times diluted, and 100 times diluted) and standard curve samples to 95 µL of ACN containing IS for LC-MS/MS analysis. Kinetic Solubilities Values of Exemplary Compounds

pSTAT1 = test: Phosphorylation inhibition of STAT in human whole blood (IFN-alpha stimulated, flow cytometry); type: cell-based; conditions: T-cell, 20 min, IFN-alpha stimulation 20 mins, CD3 T cells, read-out: pSTAT1 inhibition in hWB (IC50)
Procedure: The inhibitory potential of test articles in human whole blood assay was evaluated by the method of flow cytometry.
IFN-alpha will activate JAK1 and TYK2 kinase in T cells by binding to IFN receptors, and then lead to phosphorylation of STAT1 and STAT2. The phosphorylated STAT1 enter nuclear and promote transcription and expression of IFN-gamma. To evaluate the efficacy of TYK2i in T cells, freshly collected human whole blood will be stimulated with certain unit of human IFN-alpha (Universal Type I IFN(1MU), R&D, 11200-2) for 20 mins in incubator. After stimulation, fix cells with Phosflow™ Fix Buffer I (BD, 557870), and then collect fixed cells by centrifugation (500 g, 8min). Wash cells once with pre-cooled PBS, and then permeabilize cells with cold Perm Buffer III buffer (BD, 558050) for 45 mins on ice. Collect cells by centrifugation (600 g, 8min) and washed twice with cold PBS. Stain cells with anti-human CD3(FITC Mouse Anti-Human CD3, BD, 555332) and anti-pSTAT1_Y701(Alexa Fluor 647 Mouse Anti-Stat1 (pY701), BD, 612597) antibodies. Detect pSTAT1 by flow cytometry (CytoFlex S) and analyze data with FlowJo and GraphPad Prism 8 software. IC50 values of test articles were determined using 4- parameter logistic equation.

[2] = Microsomal metabolic stability assay; type: in vitro ADME; conditions: human, liver microsomes, pH 7.4, 0.5 mg/mL microsomal protein, 1 µM test article, 2 mM NADPH; for microsomal CLint at 1 µM: read-out: Human LM Clint; for half-life at 1 µM: read-out: Human LM T1/2
Procedure: Microsomes were pre-incubated with test compound or control compounds for 5 min at 37°C in 100 mM potassium phosphate buffer, pH 7.4, 1.0 mM EDTA. The reaction was initiated by addition of 15 µL of the NADPH regenerating system to 30 µL of each incubation mixture per time point. The final incubation condition was composed of 0.5 mg/mL microsomal protein, 1 µM test article/positive control, 2 mM NADPH. The 0-minute samples were prepared by addition of a 30 µL aliquot of each incubation mixture to 135 µL quench reagent to precipitate proteins. And then a 15 µL aliquot of the NADPH regenerating system was added. At 5, 15, 30 and 45 minutes, the reaction will be stopped by the addition of cold acetonitrile solution containing internal standard. The samples taken at all time points were centrifuged at 5000×g for 15 minutes. 50 µL of supernatant are taken into 96-well assay plates pre-added with 50 µL ultrapure water, and then analyzed by LC/MS/MS.
Concentrations of test articles, control compounds in the samples were determined by using LC/MS/MS method. Plotting of the chromatograms and peak area integrations are carried out by Analyst (AB Sciex).
In the determination of the in vitro elimination constant (ke) of the control compounds, the analyte/internal standard peak area ratios will be converted to percentage remaining (%Remaining) with the following equation: %Remaining = (Peak area ratio of analyte to IS at each time point)/(Peak area ratio of analyte to IS at t = 0) × 100% [formula]
The CLint of microsomes was calculated using the formula: CLint (mic)=0.693/T1/2 /mg microsome protein per mL. The slope was measured by the natural logarithm of the percentage of the residual compound and time, T1/2 was calculated according to the following formula. T = (0.693)/(−slope) [formula]

[3] = phosphate buffer, pH 7.4, aqueous buffer, kinetic from dmso stock

Row | Structure (SMILES) | IC50 (JAK1-JH2 domain) [nM] | IC50 (TYK2-JH2 domain) [nM] | JAK1/TYK2 selectivity (TYK2-JH2 domain) | IC50 ([1]; Mus musculus, BaF3, 72 h) [nM] | solubility kinetic at 2 h (Kinetic solubility; [3]) [µM] | IC50 (pSTAT1) [nM] | IC50 [1] [nM] | microsomal CLint at 1 µM [2] [µL/min/mg] | half-life at 1 µM [2] [h] | solubility kinetic at 2 h (Kinetic solubility) [µM]
1 | [2H]C([2H])([2H])NC(=O)c1cnc(NC(=O)C2CC2)cc1Nc1cnn2ccc(C#N)c(OC)c12 [Example 12, 4-((5-Cyano-4-methoxypyrazolo[1,5-a]pyridin-3-yl)amino)-6-(cyclopropanecarboxamido)-N-(methyl-d3)nicotinamide] | 21.1 | 0.308 | 68.5 | 194 | 15.1 (≈ 6.18 µg/mL) | – | – | – | – | –
2 | [2H]C([2H])([2H])NC(=O)c1cnc(NC(=O)C2CC23CC3)cc1Nc1cnn2ccc([C@H](O)C(F)(F)F)c(OC)c12 (single isomer, unassigned) [Example 32A, 4-((4-Methoxy-5-((S)-2,2,2-trifluoro-1-hydroxyethyl)pyrazolo[1,5-a]pyridin-3-yl)amino)-N-(methyl-d3)-6-((S*)-spiro[2.2]pentane-1-carboxamido)nicotinamide] | 18.6 | 0.099 | 187.6 | – | 25.5 (≈ 12.9 µg/mL) | 99.4 | 33 | – | – | –
3 | [2H]C([2H])([2H])NC(=O)c1cnc(NC(=O)C2CC2)cc1Nc1cnn2ccc(COC([2H])([2H])[2H])c(OC)c12 [Example 29, 6-(Cyclopropanecarboxamido)-4-((4-methoxy-5-((methoxy-d3)methyl)pyrazolo[1,5-a]pyridin-3-yl)amino)-N-(methyl-d3)nicotinamide] | 16.7 | 0.219 | 76.4 | 80.9 | 67.2 (≈ 28.9 µg/mL) | – | – | 27.9 | 0.827 | –
4 | [2H]C([2H])([2H])NC(=O)c1cnc(NC(=O)C2CC2)cc1Nc1nn(C)c2ccc([C@@H](O)C(F)(F)F)c(OC)c12 [Example 49B, (R)-6-(cyclopropanecarboxamido)-4-((4-methoxy-1-methyl-5-(2,2,2-trifluoro-1-hydroxyethyl)-1H-indazol-3-yl)amino)-N-(methyl-d3)nicotinamide] | 6.07 | 0.211 | 28.76 | 18 | 37.5 (≈ 18.6 µg/mL) | – | – | – | – | –
5 | [2H]C([2H])([2H])NC(=O)c1cnc(NC(=O)C2(F)CC2)cc1Nc1cnn2ccc([C@H](O)C(F)(F)F)c(OC)c12 [Example 19, (S)-6-(1-fluorocyclopropane-1-carboxamido)-4-((4-methoxy-5-(2,2,2-trifluoro-1-hydroxyethyl)pyrazolo[1,5-a]pyridin-3-yl)amino)-N-(methyl-d3)nicotinamide] | 276 | 0.273 | 1011.9 | 137 | 22.7 (≈ 11.3 µg/mL) | – | – | – | – | –
6 | [2H]C([2H])([2H])NC(=O)c1cnc(NC(=O)[C@@H]2C[C@@H]2F)cc1Nc1cnn2ccc(C#N)c(OC)c12 [Example 13, 4-((5-Cyano-4-methoxypyrazolo[1,5-a]pyridin-3-yl)amino)-6-((1S,2S)-2-fluorocyclopropane-1-carboxamido)-N-(methyl-d3)nicotinamide] | 21 | 0.172 | 122.0 | 131 | 11.2 (≈ 4.77 µg/mL) | – | – | 22 | 1.05 | –
7 | CNC(=O)c1nnc(NC(=O)C2CC2)cc1Nc1nc2ccc(N3CC(OC)C3)cn2n1 [Example 188, 6-(Cyclopropanecarboxamido)-4-((6-(3-methoxyazetidin-1-yl)-[1,2,4]triazolo[1,5-a]pyridin-2-yl)amino)-N-methylpyridazine-3-carboxamide, reference compound] | – | – | – | – | 1.01 (≈ 0.442 µg/mL) | – | – | – | – | –
8 | [2H]C([2H])([2H])NC(=O)c1cnc(NC(=O)C2CC2)cc1Nc1cnn2ccc(C(C)C(F)(F)F)c(OC)c12 (single isomer, unassigned) [Example 9A, (R*) -6-(cyclopropanecarboxamido)-4-((4-methoxy-5-(1,1,1-trifluoropropan-2-yl)pyrazolo[1,5-a]pyridin-3-yl)amino)-N-(methyl-d3)nicotinamide] | 39 | 0.424 | 91.9 | – | – | – | 2140 | – | – | 35.80 (≈ 17.2 µg/mL)
9 | [2H]C([2H])([2H])NC(=O)c1cnc(NC(=O)C2CC2)cc1Nc1cnn2ccc(C(C)C(F)(F)F)c(OC)c12 (stereo not drawn) [Example 9, 6-(Cyclopropanecarboxamido)-4-((4-methoxy-5-(1,1,1-trifluoropropan-2-yl)pyrazolo[1,5-a]pyridin-3-yl)amino)-N-(methyl-d3)nicotinamide] | 8.76 | 0.158 | 55.4 | – | 60 (≈ 28.8 µg/mL) | – | 51.6 | – | – | –
10 | [2H]C([2H])([2H])NC(=O)c1cnc(NC(=O)C2CC2)cc1Nc1cnn2ccc(CC(C)(F)F)c(OC)c12 [Example 20, 6-(Cyclopropanecarboxamido)-4-((5-(2,2-difluoropropyl)-4-methoxypyrazolo[1,5-a]pyridin-3-yl)amino)-N-(methyl-d3)nicotinamide] | 13.6 | 0.058 | 235.2 | 23.1 | 15 (≈ 6.92 µg/mL) | – | – | – | – | –
11 | [2H]C([2H])([2H])NC(=O)c1cnc(NC(=O)C2CC23CC3)cc1Nc1cnn2ccc([C@H](O)C(F)(F)F)c(OC)c12 (stereo partly drawn) [Example 32, 4-((4-Methoxy-5-((S)-2,2,2-trifluoro-1-hydroxyethyl)pyrazolo[1,5-a]pyridin-3-yl)amino)-N-(methyl-d3)-6-(spiro[2.2]pentane-1-carboxamido)nicotinamide] | 23.5 | 0.171 | 137.2 | 42.3 | 62.2 (≈ 31.6 µg/mL) | – | – | – | – | –
12 | [2H]C([2H])([2H])NC(=O)c1cnc(NC(=O)[C@@H]2C[C@@H]2F)cc1Nc1cnn2cnc(C(C)C(F)(F)F)c(OC)c12 (stereo partly drawn) [Example 38, 6-((1S,2S)-2-fluorocyclopropane-1-carboxamido)-4-((4-methoxy-5-(1,1,1-trifluoropropan-2-yl)pyrazolo[1,5-c]pyrimidin-3-yl)amino)-N-(methyl-d3)nicotinamide] | 144 | 0.761 | 188.7 | 1340 | 37.2 (≈ 18.5 µg/mL) | – | – | 7.34 | 3.15 | –
